The source of these data is PubChem BioAssay (NCI).

Some test systems named below: COLO 205 colon; HL-60(TB) leukemia; HOP-62 NSCLC; HOP-92 NSCLC; IGROV1 ovarian; M14 melanoma; MCF7 breast; NCI-H226 lung; NCI/ADR-RES ovarian; OVCAR-3 ovarian; RXF 393 renal; SF-539 CNS; SK-MEL-28 melanoma; SK-MEL-5 melanoma; SNB-75 CNS; TK-10 renal; UACC-62 melanoma; UO-31 renal.
Holding throughout (assay): growth of human tumour cells (NCI), 48 h

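Tested at 5 concentrations; 48 h exposure; 96-well plates; endpoints linearly interpolated, else capped at highest concentration. TGI denotes the concentration required for complete inhibition of growth.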

For `CN(C)c1ccc(N=C2N=C(Nc3ccccc3)C(=Nc3ccccc3)S2)cc1`, the TGI in the experiment on COLO 205 colon, in the experiment on HL-60(TB) leukemia, in the experiment on HOP-62 NSCLC, in the experiment on HOP-92 NSCLC, in the experiment on IGROV1 ovarian and in the experiment on M14 melanoma was above 100 µM in each case. Besides, the TGI in the experiment with MCF7 breast, in the experiment on NCI-H226 lung, in the experiment with NCI/ADR-RES ovarian, with OVCAR-3 ovarian, in the experiment on RXF 393 renal and in the experiment with SF-539 CNS was above 100 µM each time. Besides, the TGI in the experiment on SK-MEL-28 melanoma was above 100 µM; with SK-MEL-5 melanoma it was above 100 µM; in the experiment on SNB-75 CNS, 81.4 µM; in the experiment on TK-10 renal, above 100 µM; with UACC-62 melanoma it was above 100 µM.

Regarding `O=C1c2cc3c(cc2CC12Cc1ccccc1C2)CCC3`, the TGI in the experiment on COLO 205 colon was 48.5 µM; in the experiment on HL-60(TB) leukemia, 81.6 µM; in the experiment on HOP-62 NSCLC, 92 µM; in the experiment on HOP-92 NSCLC, 64.3 µM; with IGROV1 ovarian, above 100 µM; in the experiment on M14 melanoma it was 70.6 µM. For the same compound, the TGI was 54.6 µM with MCF7 breast; 73.8 µM in the experiment with NCI-H226 lung; 76.8 µM in the experiment with NCI/ADR-RES ovarian; above 100 µM in the experiment with OVCAR-3 ovarian; 67.2 µM in the experiment with RXF 393 renal; 93.2 µM in the experiment with SF-539 CNS. Further, the TGI with SK-MEL-28 melanoma is above 100 µM; in the experiment on SK-MEL-5 melanoma, 32.2 µM; in the experiment on SNB-75 CNS it was 93.8 µM; with TK-10 renal, above 100 µM; with UO-31 renal it was above 100 µM.

In the case of `NC(=O)N/N=C\CC(O)(C(F)(F)Cl)C(F)(F)Cl`, the TGI with COLO 205 colon, in the experiment with HL-60(TB) leukemia, in the experiment on HOP-62 NSCLC, in the experiment on HOP-92 NSCLC, in the experiment on IGROV1 ovarian and in the experiment on M14 melanoma was above 10 µM in each case. Moreover, the TGI with MCF7 breast, in the experiment on NCI-H226 lung, in the experiment on NCI/ADR-RES ovarian, with OVCAR-3 ovarian, in the experiment with RXF 393 renal and with SF-539 CNS was above 10 µM in each case. The TGI in the experiment with SK-MEL-28 melanoma, in the experiment on SK-MEL-5 melanoma, in the experiment with SNB-75 CNS, in the experiment with TK-10 renal, in the experiment on UACC-62 melanoma and in the experiment on UO-31 renal was above 10 µM in each case.

With `CCCCCCCCCCC/C=C(/C(=O)CCCO[Si](C)(C)C(C)(C)C)C(=O)OC`, the TGI in the experiment with COLO 205 colon, with HL-60(TB) leukemia, with HOP-62 NSCLC, in the experiment with HOP-92 NSCLC, in the experiment on IGROV1 ovarian and in the experiment with M14 melanoma was above 100 µM each time. For the same compound, the TGI in the experiment with MCF7 breast, in the experiment on NCI-H226 lung, with NCI/ADR-RES ovarian, in the experiment with OVCAR-3 ovarian, with RXF 393 renal and with SF-539 CNS was above 100 µM throughout. Besides, the TGI in the experiment with SK-MEL-28 melanoma, in the experiment on SK-MEL-5 melanoma, in the experiment on SNB-75 CNS, in the experiment on TK-10 renal, with UACC-62 melanoma and in the experiment on UO-31 renal was above 100 µM throughout.

As to `C/C(O)=C(/C=N/C(=S)Nc1ccccc1)C(=O)Nc1ccccc1C`, the TGI in the experiment with COLO 205 colon, in the experiment on HL-60(TB) leukemia, in the experiment with HOP-62 NSCLC, in the experiment on HOP-92 NSCLC, in the experiment with IGROV1 ovarian and in the experiment on M14 melanoma was above 100 µM throughout. Moreover, the TGI in the experiment with MCF7 breast, with NCI-H226 lung, with NCI/ADR-RES ovarian, with OVCAR-3 ovarian, in the experiment with RXF 393 renal and with SF-539 CNS was above 100 µM each time. For the same compound, the TGI in the experiment on SK-MEL-28 melanoma, in the experiment on SK-MEL-5 melanoma, in the experiment with SNB-75 CNS, in the experiment on TK-10 renal, with UACC-62 melanoma and in the experiment with UO-31 renal was above 100 µM each time.

As for `O=C(N/C(=C\c1ccccc1)c1nc2ccccc2c(=O)o1)c1ccccc1`, the TGI in the experiment on COLO 205 colon, with HL-60(TB) leukemia, with HOP-62 NSCLC, in the experiment on HOP-92 NSCLC, with IGROV1 ovarian and in the experiment on M14 melanoma was above 100 µM each time. The TGI in the experiment on MCF7 breast, in the experiment with NCI-H226 lung, in the experiment with NCI/ADR-RES ovarian, in the experiment with OVCAR-3 ovarian, in the experiment on RXF 393 renal and with SF-539 CNS was above 100 µM throughout. Moreover, the TGI in the experiment on SK-MEL-28 melanoma was above 100 µM; in the experiment on SK-MEL-5 melanoma, above 100 µM; in the experiment with SNB-75 CNS it was above 86.3 µM; in the experiment on TK-10 renal it was above 100 µM; in the experiment with UACC-62 melanoma it was above 100 µM; with UO-31 renal it was 97.3 µM.

With `Cc1c(-c2ccccc2)c(C#N)c2nnn(-c3ccc(Cl)cc3)c(=O)n12`, the TGI is 42.3 µM in the experiment on COLO 205 colon; above 100 µM with HL-60(TB) leukemia; above 100 µM in the experiment on HOP-62 NSCLC; above 100 µM with HOP-92 NSCLC; above 100 µM in the experiment with IGROV1 ovarian; above 100 µM in the experiment with M14 melanoma. Besides, the TGI is above 100 µM with MCF7 breast; above 100 µM in the experiment on NCI-H226 lung; above 100 µM in the experiment with NCI/ADR-RES ovarian; 52.2 µM in the experiment with OVCAR-3 ovarian; above 100 µM in the experiment on RXF 393 renal; above 100 µM in the experiment with SF-539 CNS. In addition, the TGI with SK-MEL-28 melanoma is above 100 µM; with SK-MEL-5 melanoma it was 16 µM; in the experiment with SNB-75 CNS, above 100 µM; in the experiment with TK-10 renal, above 100 µM; in the experiment with UACC-62 melanoma, above 100 µM; in the experiment with UO-31 renal, above 100 µM.

For `O=C(/C=C/c1ccc([N+](=O)[O-])cc1)N1CCN(CCOC(c2ccc(F)cc2)c2ccc(F)cc2)CC1`, the TGI in the experiment with COLO 205 colon was 27.3 µM; in the experiment with HL-60(TB) leukemia, above 100 µM; with HOP-62 NSCLC it was above 100 µM; in the experiment with HOP-92 NSCLC, 83.8 µM; in the experiment on IGROV1 ovarian it was above 100 µM; in the experiment with M14 melanoma it was above 100 µM. The TGI in the experiment with MCF7 breast, in the experiment on NCI-H226 lung, in the experiment on NCI/ADR-RES ovarian, in the experiment with OVCAR-3 ovarian, in the experiment with RXF 393 renal and in the experiment with SF-539 CNS was above 100 µM throughout. The TGI in the experiment on SK-MEL-28 melanoma is above 100 µM; with SK-MEL-5 melanoma it was above 100 µM; with SNB-75 CNS it was above 100 µM; in the experiment with TK-10 renal it was above 100 µM; with UACC-62 melanoma it was above 100 µM; in the experiment with UO-31 renal it was 96.4 µM.
